Positions of bridges follow the written chain, without caps; N, C: chain ends. Residues, ends and D or L forms follow the SMILES beside them. No end group written: not given here.
How the values were obtained:
GPR55 [1] = target: T1, GPR55 (Homo sapiens, UniProt Q9Y2T6); test: β-arrestin recruitment (Tango); assay type: cell-based; parameters: hIL-2Ra signal peptide (N); expressed in transfected cells
GPR55 [2] = target: T1, GPR55; test: Real-time receptor internalization (TR-FRET), concentration-response; assay type: cell-based; parameters: hIL-2Ra signal peptide (N); expressed in transfected cells; conditions: GPR55, data from single experiment (n = 1)
Procedure, shortened: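 Doxycycline-induced (0.1 μg/ml) SNAP-tagged receptor cells had surface receptors labeled with 100 nM Lumi4-Tb for 1 h at 37°C, then 100 μM fluorescein-O-acetic acid for 5 min. Peptide-induced internalization was recorded by TR-FRET for 60 min at 37°C as donor/acceptor emission ratio. Area under the curve gave concentration-response curves; mean ± SEM, ≥3 independent experiments.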

GPR55 [3] = target: T1, GPR55; test: Dynamic mass redistribution (DMR), concentration-response; assay type: cell-based; parameters: hIL-2Ra signal peptide (N); expressed in transfected cells; conditions: GPR55, data from single experiment (n = 1)
Procedure, shortened: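 Doxycycline-induced (0.1 μg/ml) SNAP-tagged receptors in TREx 293 cells, equilibrated 90 min at 22°C in HEPES-buffered HBSS, pH 7.4, with 0.1% DMSO. Peptide-evoked optical wavelength shift recorded for 60 min at 22°C, buffer/solvent corrected and quantified as area under the curve. Mean ± SEM of at least 3 independent experiments.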

GPR15 [4] = test: Repeat of proposed literature pairing; assay type: cell-based, human
Description: Supplement mmc7.xlsx, sheet "Hit summary and classification" | column: Priority orphans

GPR15 [5] = target: T2, GPR15 (Homo sapiens, UniProt P49685); test: cAMP inhibition (Gi/o), HTRF with forskolin; assay type: cell-based; conditions: GPR15L cleavage variants versus peptide 64; Figure 5, Table S7
T2 construct: hIL-2Ra signal peptide (N); expressed in transfected cells
T2 sequence (P49685 2-360 limits assumed): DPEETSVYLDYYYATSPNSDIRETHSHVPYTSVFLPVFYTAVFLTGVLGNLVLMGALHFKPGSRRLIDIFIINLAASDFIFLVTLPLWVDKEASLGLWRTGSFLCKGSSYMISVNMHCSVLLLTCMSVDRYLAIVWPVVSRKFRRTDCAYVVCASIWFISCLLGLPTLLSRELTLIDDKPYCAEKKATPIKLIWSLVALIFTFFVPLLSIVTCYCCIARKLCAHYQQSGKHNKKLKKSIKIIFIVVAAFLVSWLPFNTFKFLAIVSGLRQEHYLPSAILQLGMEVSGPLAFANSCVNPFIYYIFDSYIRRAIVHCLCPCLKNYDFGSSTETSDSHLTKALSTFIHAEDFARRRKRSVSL
Protocol: Peptide-dependent second messenger responses were measured using commercially available HTRF-based IP1 and cAMP kits (Cisbio) as described previously ([Nørskov-Lauritsen et al., 2014]). Receptor expression was induced for 48 hr with 0.1 μg/ml doxycycline in 10 cm dishes. For IP1 measurements (to measure Gq/11), 2,500 cells/well were mixed with ligands in triplicate wells in low volume white 384-well plates at 37°C for 30 min. For cAMP assays, 2,500 cells/well were added in triplicate wells in white 384-well plates in the absence or presence of 3 μM forskolin (to measure Gs and Gi/o activation respectively). 100 μM IBMX was included to prevent cAMP degradation during 30 min stimulation on a plate shaker at room temperature. For both assays, HTRF was measured using an EnVision 2104 Multimode plate reader (PerkinElmer).

GPR15 [6] = test: Repeat of proposed literature pairing (mass redistribution and/or internalization); assay type: cell-based, human; conditions: target GPR15; reported ligand tested on receptor-expressing cell line

T1 sequence (Q9Y2T6 2-319 limits assumed): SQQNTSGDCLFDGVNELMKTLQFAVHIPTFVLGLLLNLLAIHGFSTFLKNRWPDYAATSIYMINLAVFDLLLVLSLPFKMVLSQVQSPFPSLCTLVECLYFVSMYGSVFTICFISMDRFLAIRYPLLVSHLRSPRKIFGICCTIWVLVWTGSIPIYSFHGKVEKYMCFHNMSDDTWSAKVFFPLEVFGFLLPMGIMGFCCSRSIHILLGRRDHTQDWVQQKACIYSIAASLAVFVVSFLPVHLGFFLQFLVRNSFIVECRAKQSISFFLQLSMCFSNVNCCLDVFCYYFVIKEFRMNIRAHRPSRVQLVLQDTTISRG

| Compound | Comment on response, Tango (fold over basal); Emax and pEC50 n.d. (GPR55 [1]) | Emax, Internalization (AUC) (GPR55 [2]) | EC50 (GPR55 [2]; read-out: pEC50, Internalization (AUC) (converted)) [nM] | Emax, DMR (AUC) (GPR55 [3]) | EC50 (GPR55 [3]; read-out: pEC50, DMR (AUC) (converted)) [nM] | Peptide pairing for orphan receptor GPR15 (confirmed/unconfirmed) (GPR15 [4]) | fold improved potency over the 11-amino acid peptide at GPR15 (GPR15 [5]) [fold] | Active in DMR/internalization (GPR15 [6]) |
| --- | --- | --- | --- | --- | --- | --- | --- | --- |
| CC[C@H](C)[C@H](NC(=O)[C@@H](NC(=O)[C@H](Cc1c[nH]c2ccccc12)NC(=O)[C@H](CCC(=O)O)NC(=O)[C@H](CO)NC(=O)[C@@H](NC(=O)[C@H](CO)NC(=O)[C@@H]1CSSC[C@H](NC(=O)[C@H](CC(=O)O)NC(=O)[C@@H](N)CCC(=O)O)C(=O)N[C@@H](CCCCN)C(=O)N[C@@H](Cc2ccc(O)cc2)C(=O)N[C@@H]([C@@H](C)CC)C(=O)N[C@@H](C(C)C)C(=O)N[C@@H](C(C)C)C(=O)N[C@@H](CCC(=O)O)C(=O)N[C@@H](CCCCN)C(=O)N[C@@H](CCCCN)C(=O)N[C@@H](CC(=O)O)C(=O)N2CCC[C@H]2C(=O)N[C@@H](CCCCN)C(=O)N[C@@H](CCCCN)C(=O)N[C@@H]([C@@H](C)O)C(=O)N1)C(C)C)[C@@H](C)CC)C(=O)O [MSMB (91-114)] (H-EDCKYIVVEKKDPKKTCSVSEWII-OH; disulfide 3-17; N-terminus and C-terminus assumed) | No response | 37.6 | 2690 | 169875.0 | 224 |  |  |  |
| GPR15L: longest 57-residue cleavage variant of C10orf99 with two intramolecular disulfide bridges (KRRPAKAWSGRRTRLCCHRVPSPNSTNLKGHHVRLCKPCKLEPEPRLWVVPGALPQV; disulfide (positions not given here)) |  |  |  |  |  | Confirmed peptide pairings for orphans | 100 | Yes |

Reference: article PMC6838683, “Discovery of Human Signaling Systems: Pairing Peptides to G Protein-Coupled Receptors” (Cell, 2019)
